One compound from patent publication US20040241653A1, “Methods for identifying marker genes for cancer” (priority 2001, published 2004) can be followed below.

The structures appear in SMILES notation.

One experiment relates to PSA promoter. The experiment can be described thus: PSA promoter/enhancer CAT reporter assay in transfected LNCaP cells. The class given is cell-based, human. To be noted: LNCaP cells co-transfected with PSA-CAT reporter and wild type p53 plasmid; TSA 100 nM. Here is the method:
(§1) FIG. 2: Opposite regulatory effect of p53 on PSA and p21 promoters. Chloramphenicol acetyltransferase (CAT)-reporter constructs were used to estimate p53 influence on PSA and p21 promoter elements. […]
(§2) FIG. 3: Trichostatin A (TSA) treatment eliminates the effect p53 has on PSA promoter activity. […] TSA (100 nM) was added 5 h and CAT activity was measured 40 h post-transfection. […]
(§3) Since it has previously been shown that negative regulation of transcription by p53 may involve p53-mediated recruitment of histone deacetylases (HDAC) (Murphy et al., Genes Dev., i3:2490-2501 1999), the inventors set out to determine whether this would be also true for the PSA promoter. […] At the same time, TSA had no effect on p53-mediated transactivation as determined in a similar experiment employing the p21 promoter-driven CAT reporter construct (FIG. 3). […]

For the next experiment, the system named is p21 promoter. The experiment can be described thus: p21/Waf1 p53-responsive promoter CAT reporter assay in transfected LNCaP cells. The experiment is classed as cell-based, human. To be noted: LNCaP cells co-transfected with p21-CAT reporter and wild type p53 plasmid; TSA 100 nM. Here is the method:
as §1, §2, §3

For the compound `CC(/C=C/C(=O)NO)=C\[C@@H](C)C(=O)c1ccc(N(C)C)cc1` [TSA, Trichostatin A], the “p53-mediated repression of PSA promoter driven transcriptional activity (CAT activity)” value in the experiment with PSA promoter is “completely abrogated”. Further, the “p53-mediated transactivation of p21 promoter-driven CAT reporter” value in the experiment with p21 promoter is recorded as “no effect”.
